Laboratory results: US20140323506A1, “COMBINATION” (GlaxoSmithKline Intellectual Property Development Limited, priority 2010, published 2014)

What was measured:
Type in all cases: in vivo, CD-1 nude mice
[1] = Body weight of nude mice bearing A375P F11s xenografts during treatment
Method: (§1) Female CD-1 nude mice of 6-8 weeks in age were used in these studies; all mice were obtained from Charles River Laboratories (Wilmington, Del.). Animals were housed in pathogen free conditions and handled with aseptic technique.
(§2) Mice with similar sized tumors (100-300 mm^3) were identified. The length and width of the tumors were measured by handheld calipers and body weights of the mice were measured using a bench top weighing scale. Tumor volumes were calculated based on the following formula: tumor volume=(Length×Width^2)/2. Mice were block randomized into the required number of dosing groups (n=8 mice/group). The randomization process ensured that the average tumor volume for each dosing group was approximately equal at the beginning of the study and mice with differing tumor volumes were evenly distributed. Mice were placed in groups of eight accordingly and dosed with either vehicle or compound for 36 days either once or twice daily, as summarised in the table below. Mice were weighed and tumors measured twice weekly for the duration of the study using Studylog animal study management software (Studylog Systems, Inc., South San Francisco, Calif., USA).

[2] = tested on: A375P F11s tumor xenografts; experiment: A375P F11s tumor xenograft efficacy in nude mice
[3] = tested on: A375P F11s tumor xenografts; experiment: A375P F11s tumor xenograft efficacy in nude mice; remark: listed apart in the source
Method: as §1
The A375P F11s cell line, encoding a mutation for BRAF^V600E, was subcloned from the A375P human melanoma cell line (obtained from ATCC, Cat # CRL-1619).
The A375P F11s cell lines were grown in RPMI growth medium supplemented with 10% fetal bovine serum (FBS), 1% sodium pyruvate and 1% penicillin-streptomycin in a humidified 37° C. chamber with 5% CO2. Cells were expanded to obtain the large numbers of cells required for each injection; cells were grown in log phase, without reaching confluency and passaged regularly.
A375P F11s cells were harvested from culture flasks by exposure to 0.25% trypsin/EDTA for 5 min at 37° C. Detached cells were collected, centrifuged (1500 rpm, 5 min, 4° C.) and rinsed to remove the trypsin solution. Cells were re-suspended in PBS without magnesium or calcium and counted. Cells were spun as described previously to remove PBS and a single cell suspension was created in 50% Matrigel: 50% PBS (v:v) so that a 100 μL subcutaneous injection would deliver 1.75 million cells per mouse.
Compounds were administered in vehicles as described below.
as §2
Tumor volumes were calculated based on the following formula: tumor volume=(Length×Width^2)/2. Tumor growth curves were created from the mean±standard error of the mean, with n=8 animals per group. The percentage of tumor growth inhibition was calculated on the final day of dosing using the following formula: 1—(tumor volume in drug-treated population/tumor volume in vehicle-treated control population).

[4] = Group 3: Compound B 0.1 mg/kg PO QD, study day 3
[5] = Group 3: Compound B 0.1 mg/kg PO QD, study day 22
[6] = Group 6: Compound B 0.3 mg/kg PO QD, study day 0
[7] = Group 6: Compound B 0.3 mg/kg PO QD, study day 9
[8] = Group 6: Compound B 0.3 mg/kg PO QD, study day 15
[9] = Group 6: Compound B 0.3 mg/kg PO QD, study day 22
[10] = Group 3: Compound B 0.1 mg/kg PO QD, study day 0
[11] = Group 3: Compound B 0.1 mg/kg PO QD, study day 7
[12] = Group 3: Compound B 0.1 mg/kg PO QD, study day 9
[13] = Group 3: Compound B 0.1 mg/kg PO QD, study day 15
[14] = Group 3: Compound B 0.1 mg/kg PO QD, study day 18
[15] = Group 3: Compound B 0.1 mg/kg PO QD, study day 25
[16] = Group 3: Compound B 0.1 mg/kg PO QD, study day 28
[17] = Group 6: Compound B 0.3 mg/kg PO QD, study day 3
[18] = Group 6: Compound B 0.3 mg/kg PO QD, study day 7
[19] = Group 6: Compound B 0.3 mg/kg PO QD, study day 18
[20] = Group 6: Compound B 0.3 mg/kg PO QD, study day 25
[21] = Group 6: Compound B 0.3 mg/kg PO QD, study day 28
[22] = Group 6: Compound B 0.3 mg/kg PO QD, study day 31
[23] = Group 6: Compound B 0.3 mg/kg PO QD, study day 35
[24] = Group 6: Compound B 0.3 mg/kg PO QD, study day 37

Question: Which Mean body weight ([1]; Group 2: Compound A 100 mg/kg PO BID, study day 0) does the source give for `Cc1ccc(Nc2nccc(N(C)c3ccc4c(C)n(C)nc4c3)n2)cc1S(N)(=O)=O` [Compound A, 5-[[4-[(2,3-dimethyl-2H-indazol-6-yl)methylamino]-2-pyrimidinyl]amino]-2-methylbenzenesulfonamide, reference compound] here?
Answer: 24.98 g

Question: And the Mean body weight ([1]; Group 2: Compound A 100 mg/kg PO BID, study day 3)?
Answer: 25.13 g

Question: And the Mean body weight ([1]; Group 2: Compound A 100 mg/kg PO BID, study day 7)?
Answer: 25.63 g

Question: And the Mean body weight ([1]; Group 2: Compound A 100 mg/kg PO BID, study day 9)?
Answer: 25.29 g

Question: And the Mean body weight ([1]; Group 2: Compound A 100 mg/kg PO BID, study day 15)?
Answer: 24.83 g

Question: And the Mean body weight ([1]; Group 2: Compound A 100 mg/kg PO BID, study day 18)?
Answer: 25.35 g

Question: What about the Mean body weight ([1]; Group 2: Compound A 100 mg/kg PO BID, study day 22) of the same compound?
Answer: 24.71 g

Question: And the Mean body weight ([1]; Group 2: Compound A 100 mg/kg PO BID, study day 25)?
Answer: 24.79 g

Question: What about the Mean body weight ([1]; Group 2: Compound A 100 mg/kg PO BID, study day 28) of the same compound?
Answer: 24.91 g

Question: And the Mean body weight ([1]; Group 2: Compound A 100 mg/kg PO BID, study day 31)?
Answer: 25.33 g

Question: What about the Mean body weight ([1]; Group 2: Compound A 100 mg/kg PO BID, study day 35) of the same compound?
Answer: 24.95 g

Question: And the Mean body weight ([1]; Group 2: Compound A 100 mg/kg PO BID, study day 37)?
Answer: 25.00 g

Question: Which results are given for `CC(=O)Nc1cccc(-n2c(=O)n(C3CC3)c(=O)c3c(Nc4ccc(I)cc4F)n(C)c(=O)c(C)c32)c1` [Compound B, N-{3-[3-cyclopropyl-5-(2-fluoro-4-iodo-phenylamino)-6,8-dimethy-2,4,7-trioxo-3,4,6,7-tetrahydro-2H-pyrido[4,3-d]pyrimidin-1-yl]phenyl}acetamide]?
Answer: Percent inhibition of tumor volume compared to vehicle treated mice [2, 4]: −4.1%; Percent inhibition of tumor volume compared to vehicle treated mice [2, 5]: 2.1%; Percent inhibition of tumor volume compared to vehicle treated mice [2, 6]: −15.41%; Percent inhibition of tumor volume compared to vehicle treated mice [2, 7]: 68.1%; Percent inhibition of tumor volume compared to vehicle treated mice [2, 8]: 82.0%; Percent inhibition of tumor volume compared to vehicle treated mice [2, 9]: 76.8%; Mean body weight [1, 10]: 26.30 g; Mean body weight [1, 4]: 26.00 g; Mean body weight [1, 11]: 26.24 g; Mean body weight [1, 12]: 26.23 g; Mean body weight [1, 13]: 26.09 g; Mean body weight [1, 14]: 27.09 g; Mean body weight [1, 5]: 26.73 g; Mean body weight [1, 15]: 26.80 g; Mean body weight [1, 16]: 26.93 g; Mean body weight [1, 6]: 24.59 g; Mean body weight [1, 17]: 24.10 g; Mean body weight [1, 18]: 23.89 g; Mean body weight [1, 7]: 23.93 g; Mean body weight [1, 8]: 23.94 g; Mean body weight [1, 19]: 24.41 g; Mean body weight [1, 9]: 23.83 g; Mean body weight [1, 20]: 23.95 g; Mean body weight [1, 21]: 24.18 g; Mean body weight [1, 22]: 24.49 g; Mean body weight [1, 23]: 24.54 g; Mean body weight [1, 24]: 24.64 g; smaller tumors compared to vehicle control ([3]; Compound B 0.3 mg/kg QD): 70.4%; tumor volume course under extended treatment ([3]; Compound B alone 0.3 mg/kg, treatment continued until day 37): tumor volume started to increase even under continued drug treatment; Mean tumor volume [3, 10]: 199.3 mm^3; Percent inhibition of tumor volume compared to vehicle treated mice [3, 10]: −15.70%; Mean tumor volume [3, 4]: 260.5 mm^3; Mean tumor volume [3, 11]: 300.8 mm^3; Percent inhibition of tumor volume compared to vehicle treated mice [3, 11]: 3.1%; Mean tumor volume [3, 12]: 335.1 mm^3; Percent inhibition of tumor volume compared to vehicle treated mice [3, 12]: 14.2%; Mean tumor volume [3, 13]: 459.3 mm^3; Percent inhibition of tumor volume compared to vehicle treated mice [3, 13]: 28.2%; Mean tumor volume [3, 14]: 616.2 mm^3; Percent inhibition of tumor volume compared to vehicle treated mice [3, 14]: 15.3%; Mean tumor volume [3, 5]: 916.9 mm^3; Mean tumor volume [3, 15]: 1,100.3 mm^3; Percent inhibition of tumor volume compared to vehicle treated mice [3, 15]: −1.0%; Mean tumor volume [3, 16]: 1,338.4 mm^3; Percent inhibition of tumor volume compared to vehicle treated mice [3, 16]: −6.8%; Mean tumor volume [3, 6]: 198.8 mm^3; Mean tumor volume [3, 17]: 205.9 mm^3; Percent inhibition of tumor volume compared to vehicle treated mice [3, 17]: 17.7%; Mean tumor volume [3, 18]: 141.2 mm^3; Percent inhibition of tumor volume compared to vehicle treated mice [3, 18]: 54.5%; Mean tumor volume [3, 7]: 124.4 mm^3; Mean tumor volume [3, 8]: 115.1 mm^3; Mean tumor volume [3, 19]: 141.4 mm^3; Percent inhibition of tumor volume compared to vehicle treated mice [3, 19]: 80.5%; Mean tumor volume [3, 9]: 217.3 mm^3; Mean tumor volume [3, 20]: 300.3 mm^3; Percent inhibition of tumor volume compared to vehicle treated mice [3, 20]: 72.4%; Mean tumor volume [3, 21]: 370.6 mm^3; Percent inhibition of tumor volume compared to vehicle treated mice [3, 21]: 70.4%; Mean tumor volume [3, 22]: 450.5 mm^3; Mean tumor volume [3, 23]: 529.1 mm^3; Mean tumor volume [3, 24]: 604.4 mm^3
